Structures are written as SMILES.

In this experiment the test system is T1, GmSULTR1;2b.
T1 construct: C-terminal STAS domain
As to the kind of experiment: […]-sulfate uptake in sul1 sul2 yeast cells, Michaelis-Menten fit. It counts as cell-based, Glycine max. The settings on record: pH 6.0; proton-coupled uptake; yeast CP154-7A; labelled compound.

For `O=S(=O)(O)O` [sulfate], the Km stood at 9.5 ± 1.7 µM.

A word on the Km: it is the concentration of substrate that gives half-maximal velocity.

(Values after paper PMC4874011, “Identification and functional characterization of the sulfate transporter gene GmSULTR1;2b in soybean” (BMC Genomics, 2016).)
